Common to all, as to assay: NCI anticancer screen, dose series, 48 h
Assay [1] has as its system NCI-H226 lung.
The subject of assay [2] is NCI-H23 lung.
Assay [3] relates to SR leukemia.
The test system of assay [4] is U251 CNS.
Assay [5] has as its system HCC-2998 colon.
For assay [6], the system named is OVCAR-4 ovarian.
Assay [7] deals with KM12 colon.
The subject of assay [8] is OVCAR-8 ovarian.
Assay [9] deals with DU-145 prostate.
The subject of assay [10] is MDA-MB-231 breast.

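Five concentrations, 48 hours, 96-well plates. Abbreviation: GI50, concentration required for 50% inhibition of growth. TGI: total growth inhibition.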

For `COC(=O)/C=C/c1cc(OC)c2c(c1)[C@@H](C(=O)OC)[C@H](c1ccc(OC)c(OC)c1)O2`, the GI50 is 38.4 µM in assay [1]; 3.57 µM in assay [2]; 0.543 µM in assay [3]; 1.38 µM in [4]; 3.35 µM in assay [5]; 4.76 µM in [6]. Also, the GI50 in assay [7] is 0.703 µM; in assay [8], 4.53 µM; in assay [9], 2.8 µM; in [10], 7.39 µM. For the same compound, the TGI in assay [1], in assay [2], in [3], in assay [4], in assay [5] and in assay [6] was greater than 100 µM throughout. For the same compound, the TGI in [7], in assay [8], in assay [9] and in assay [10] was greater than 100 µM throughout.

`COc1cc(/C=C/C(=O)c2ccc(SC)cc2)cc(OC)c1OC`: the GI50 in assay [2] was 10 µM; in [3], 3.56 µM; in assay [4], 3.27 µM; in [5], 18 µM; in assay [7] it was 13.3 µM; in [8] it was 2.44 µM. In addition, the GI50 is 12.8 µM in assay [9] and 4.46 µM in [10]. The TGI in assay [2] is 23.5 µM; in assay [3] it was greater than 100 µM; in [4], 12 µM; in assay [5], 33.2 µM; in assay [7] it was 29.1 µM; in assay [8] it was 5.85 µM. The TGI in [9] amounted to 26.4 µM; in assay [10], 17.2 µM.

Regarding `CC(=O)NC1C(OCc2ccccc2)OC(COC(=O)CCCCCCCCCCNC(=O)CCNc2ccc([N+](=O)[O-])c3[nH]c4ccc(O)cc4c(=O)c23)C(O)C1OC(C)C(=O)N[C@H](C(=O)N[C@H](CCC(=O)O)C(N)=O)C(C)C` (stereo partly specified), the TGI was greater than 100 µM in assay [1]; greater than 100 µM in [2]; 45.4 µM in assay [3]; greater than 100 µM in assay [4]; greater than 100 µM in assay [5]; greater than 100 µM in assay [6]. Moreover, the TGI in [7] and in assay [8] was greater than 100 µM each time.

Regarding `Cc1cnc2n(c1=O)Cc1ccccc1CO2`, the GI50 is 20.4 µM in [1]; 21.1 µM in [2]; 9.11 µM in [3]; 15.7 µM in [4]; 16 µM in assay [5]; 22 µM in assay [6]. Also, the GI50 is 18 µM in assay [7], 23.4 µM in assay [8], 16.6 µM in assay [9] and 11.8 µM in [10]. The TGI was 52.5 µM in assay [1]; 60.5 µM in assay [2]; 27.9 µM in assay [3]; 29.9 µM in assay [4]; 31.4 µM in [5]; 64.1 µM in [6]. Besides, the TGI in assay [7] amounted to 34.3 µM; in [8] it was 82.5 µM; in assay [9], 32.1 µM; in assay [10] it was 32 µM.

As for `C=C(C=O)[C@@H]1CC=C(C=O)CC1`, the GI50 is 21.1 µM in assay [1]; 3.83 µM in assay [2]; 5.48 µM in assay [3]; 2.4 µM in assay [4]; 11.2 µM in assay [5]; 4.19 µM in assay [6]. Further, the GI50 in assay [7] is 4.21 µM; in assay [8], 3.69 µM; in [9], 3.44 µM; in assay [10], 6.88 µM. Also, the TGI in assay [1] is 98.7 µM; in [2], greater than 100 µM; in assay [3], greater than 100 µM; in assay [4], 6.71 µM; in assay [5], 93.5 µM; in assay [6], greater than 100 µM. The TGI in assay [7] was 27.8 µM; in assay [8] it was greater than 100 µM; in assay [9] it was 11.2 µM; in [10], 20.1 µM.

Turning to `COc1ccc(/C=N/C2=C(C#N)C(c3ccccc3)c3ccc4ccccc4c3O2)cc1` (stereo unspecified), the GI50 in assay [1] was 2.08 µM; in assay [2], 0.469 µM; in assay [3], 0.304 µM; in [4], 0.457 µM; in assay [5], 0.92 µM; in assay [6], 0.645 µM. In addition, the GI50 was 0.397 µM in [7], 0.486 µM in assay [8], 0.428 µM in assay [9] and 0.522 µM in assay [10]. Also, the TGI in assay [1] was greater than 100 µM; in [2], greater than 100 µM; in [3], greater than 75.8 µM; in assay [4] it was greater than 100 µM; in assay [5] it was greater than 42 µM; in [6], greater than 100 µM. Besides, the TGI in [7] was greater than 100 µM; in assay [8] it was greater than 100 µM; in assay [9], greater than 100 µM; in assay [10] it was 8.39 µM.

With `CC(=O)c1ccc(-c2ccc(C(C)=O)s2)s1`, the TGI in assay [1], in [2], in [3], in assay [4], in [5] and in assay [6] was greater than 100 µM throughout. Besides, the TGI in assay [7] and in assay [8] was greater than 100 µM throughout.

As for `O=C1C2Cc3ccccc3CN2C(=O)N1CCN1CCOCC1` (stereo unspecified), the TGI in assay [1], in assay [2], in [3], in [4], in assay [5] and in [6] was greater than 100 µM throughout. In addition, the TGI in assay [7] and in [8] was greater than 100 µM in each case.

As to `c1ccc2c(c1)-c1nc3ccccc3cc1C2N1CCOCC1` (stereo unspecified), the TGI in [1], in assay [2], in assay [3], in assay [4], in [6] and in assay [7] was greater than 100 µM throughout. For the same compound, the TGI in [8], in assay [9] and in assay [10] was greater than 100 µM throughout.

`COc1ccc2c(c1)[n+](=O)c(C(=O)C/C(=N\NC(=O)C[N+](C)(C)C)C(=O)Nc1cc(Cl)ccc1Cl)c(C)n2O`: the TGI in assay [1], in assay [2], in assay [3], in assay [4], in assay [5] and in assay [6] was greater than 100 µM throughout. Moreover, the TGI in assay [7] and in [8] was greater than 100 µM each time.

Turning to `OC(c1cc2c(Cl)cc(Cl)cc2c2cc(C(F)(F)F)ccc12)C1CCCCN1` (stereo unspecified), the GI50 in assay [1] was 1.73 µM; in assay [2] it was 1.66 µM; in [3], 1.49 µM; in assay [5], 1.64 µM; in [6], 2.11 µM; in assay [7], 1.89 µM. In addition, the GI50 in assay [9] was 2 µM; in assay [10] it was 1.48 µM. For the same compound, the TGI in [1] is 3.56 µM; in assay [2] it was 3.43 µM; in assay [3], 3.95 µM; in assay [5], 3.24 µM; in assay [6] it was 4.08 µM; in assay [7], 3.46 µM. Further, the results for the TGI in assay [9] and in assay [10] were 3.55 µM and 3.24 µM, respectively.

On to `COc1ccc(/C=C2\CCC(CN(C)C)C2=O)cc1` (stereo unspecified), for which the TGI in assay [1] was determined as 31.6 µM; in assay [2], 18.3 µM; in [3], 6.21 µM; in [4], 32.7 µM; in [5], 19.1 µM; in assay [6], 16.1 µM. Also, the TGI in assay [7] is 22.1 µM; in [8], 12.1 µM; in assay [9], 5.8 µM.

With `CN(CC(=O)O)Cc1c[nH]c2ccccc12`, the TGI in assay [1], in [2], in assay [3], in assay [4], in assay [6] and in [7] was greater than 100 µM each time. Moreover, the TGI in assay [8], in assay [9] and in assay [10] was greater than 100 µM each time.

`COC(=O)c1cccc(COc2ccc([N+](=O)[O-])cc2Cl)c1`: the TGI in [1], in [2], in assay [3], in assay [4], in [6] and in assay [7] was greater than 100 µM each time. For the same compound, the TGI in assay [8], in [9] and in assay [10] was greater than 100 µM throughout.

As to `CC1(C)OC(=O)C(c2ccsc2)C(=O)O1`, the TGI in [1], in [2], in [3], in [4], in [5] and in [6] was greater than 100 µM throughout. Besides, the TGI in [7] and in [8] was greater than 100 µM throughout.

Regarding `O=C(c1ccccc1)C(c1ccccc1)C1(O)C(=O)Nc2ccc(Br)cc21` (stereo unspecified), the TGI in [1], in [2], in assay [3], in [4], in [5] and in assay [6] was greater than 100 µM throughout. Also, the TGI in [7] and in assay [8] was greater than 100 µM in each case.

Consider `Nc1c(S(=O)(=O)O)cc2c(c1Cl)C(=O)c1ccccc1C2=O`, for which the GI50 in assay [1], in assay [2], in assay [3], in assay [4], in assay [5] and in [7] was greater than 100 µM throughout. The GI50 in assay [8], in assay [9] and in assay [10] was greater than 100 µM in each case. For the same compound, the TGI in [1], in assay [2], in assay [3], in assay [4], in assay [5] and in assay [7] was greater than 100 µM in each case. In addition, the TGI in assay [8], in [9] and in [10] was greater than 100 µM throughout.

Regarding `Clc1ccc2c(NCCCNCc3ccc4c(c3)OCO4)ccnc2c1`, the GI50 is 17.8 µM in assay [1]; 8.59 µM in assay [2]; 1.99 µM in assay [3]; 2.68 µM in [4]; 2.03 µM in assay [5]; 10.8 µM in assay [6]. Moreover, the GI50 in [7] was 3.86 µM; in [8], 3.64 µM; in [10] it was 1.72 µM. Besides, the TGI in [1] is 40.9 µM; in assay [2], 23.8 µM; in assay [3], 4.67 µM; in [4] it was 7.11 µM; in [5], 5.25 µM; in assay [6], 24.8 µM. Besides, the values for the TGI in assay [7], in assay [8] and in [10] were 15.1 µM, 13.1 µM and 5.78 µM, respectively.

For `CCN(CC)[C@@H]1c2cc3c(cc2C(c2cc(OC)c(O)c(OC)c2)C2C(=O)CO[C@@H]21)OCO3` (stereo partly specified), the TGI in [1], in [2], in assay [3], in assay [4], in assay [5] and in [6] was greater than 100 µM throughout. In addition, the TGI in [7] and in assay [8] was greater than 100 µM in each case.

In the case of `COc1ccc(S(=O)(=O)Nc2c(/C=C\c3cc(OC)c(OC)c(OC)c3)ccc(OC)c2O)cc1OC`, the GI50 in assay [2] is 0.318 µM; in assay [3], 0.0661 µM; in assay [4] it was 0.365 µM; in [5] it was 0.306 µM; in [6] it was 0.664 µM; in [7], 0.091 µM. The results for the GI50 in [8], in assay [9] and in assay [10] were 0.416 µM, 0.388 µM and 0.338 µM, respectively. The TGI in assay [2] was greater than 100 µM; in assay [3] it was greater than 75.9 µM; in assay [4] it was greater than 100 µM; in assay [5] it was 5.57 µM; in [6], greater than 100 µM; in assay [7] it was greater than 100 µM. Also, the TGI in assay [8], in assay [9] and in [10] was greater than 100 µM in each case.

As to `COc1ccc(/C=C\c2cc(OC)c(OC(C)=O)c(OC)c2)cc1`, the TGI in assay [1] was greater than 100 µM; in assay [2], 63.4 µM; in assay [3] it was 98.2 µM; in assay [4], 23.1 µM; in [5], 36.7 µM; in [6] it was greater than 100 µM. Besides, the TGI in assay [7] stood at 61.2 µM; in [8], 76.7 µM.

These data come from PubChem BioAssay (NCI).
